Experimental data reported in US20230167073A1 (Teijin Pharma Limited, priority 2020, published 2023).

target: T1, Human TRPC6 (Homo sapiens, UniProt Q9Y210); experiment: Evaluation of TRPC6 channel inhibitory activity (1), FLIPR Calcium 5 Assay Kit, OAG stimulation (Compound Nos. 1-1293); type: cell-based; settings: not given
T1 construct: expressed in transfected cells
T1 sequence (Q9Y210 1-931): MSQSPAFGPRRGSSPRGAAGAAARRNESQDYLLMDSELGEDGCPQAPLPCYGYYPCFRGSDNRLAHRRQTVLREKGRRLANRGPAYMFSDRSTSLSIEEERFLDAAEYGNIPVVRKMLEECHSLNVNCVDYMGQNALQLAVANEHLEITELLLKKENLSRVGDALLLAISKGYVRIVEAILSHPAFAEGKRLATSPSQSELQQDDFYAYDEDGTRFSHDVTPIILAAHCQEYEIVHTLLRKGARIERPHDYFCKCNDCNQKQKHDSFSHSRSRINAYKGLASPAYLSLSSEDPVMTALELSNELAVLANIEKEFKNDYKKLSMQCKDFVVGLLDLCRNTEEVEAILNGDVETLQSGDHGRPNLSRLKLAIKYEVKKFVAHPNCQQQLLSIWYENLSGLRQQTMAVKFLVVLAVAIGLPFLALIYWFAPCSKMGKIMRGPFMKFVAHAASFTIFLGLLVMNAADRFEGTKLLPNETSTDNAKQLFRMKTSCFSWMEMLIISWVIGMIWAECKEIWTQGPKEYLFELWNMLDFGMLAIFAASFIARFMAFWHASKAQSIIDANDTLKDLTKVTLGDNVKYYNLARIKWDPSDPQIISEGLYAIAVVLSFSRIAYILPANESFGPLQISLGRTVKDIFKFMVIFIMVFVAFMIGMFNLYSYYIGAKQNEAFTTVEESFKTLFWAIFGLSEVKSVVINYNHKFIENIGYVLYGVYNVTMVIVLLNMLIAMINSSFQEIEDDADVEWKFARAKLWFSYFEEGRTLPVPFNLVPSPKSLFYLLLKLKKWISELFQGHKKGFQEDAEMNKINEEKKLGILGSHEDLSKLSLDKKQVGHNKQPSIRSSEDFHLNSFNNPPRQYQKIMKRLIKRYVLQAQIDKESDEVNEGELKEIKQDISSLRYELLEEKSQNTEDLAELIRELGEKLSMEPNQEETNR
Summary of the method: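 Cells stably expressing human TRPC6, plated 24 h before, were loaded 30 min with Calcium 5 dye plus probenecid in HEPES-HBSS. Compound was added 20 min before OAG (30 μM final) and fluorescence tracked on FLIPR. Inhibition normalised to no-compound and no-compound/no-OAG wells; pIC50 from four-parameter fit, reported as +/++/+++ categories.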

Row | Compound | IC50 [nM]
1 | Cc1nc(Oc2cc(C#N)ccc2-c2ccc(CC3(N)COC3)cn2)cc(N2C3CCC2CC3)n1 [Compound No. 670, 4-[5-[(3-Aminooxetan-3-yl)methyl]pyridin-2-yl]-3-[6-(7-azabicyclo[2.2.1]heptan-7-yl)-2-methylpyrimidin-4-yl]oxybenzonitrile] | < 10

same assay, conditions: Human TRPC6 stably-expressing cells, OAG 30 μM, FLIPR Calcium 5 Assay Kit; read-out: Inhibitory activity (pIC50 class) (converted)

Row | Compound | IC50 [nM]
2 | Cn1nc(C2CCC2)cc1Oc1cc(C#N)ccc1-c1ccc(C(F)(F)CN)cn1 [Compound 294, 4-[5-(2-amino-1,1-difluoroethyl)pyridin-2-yl]-3-(5-cyclobutyl-2-methylpyrazol-3-yl)oxybenzonitrile] | < 10
3 | N#Cc1ccc(-c2ccc(CCN)cn2)c(Oc2nnc(C(F)(F)F)s2)c1 [Compound No. 712, 4-[5-(2-Aminoethyl)pyridin-2-yl]-3-[[5-(trifluoromethyl)-1,3,4-thiadiazol-2-yl]oxy]benzonitrile] | 10 to 1000
4 | Cn1nc(C(F)(F)F)cc1Oc1cc(C#N)ccc1-c1ncc(CN)cn1 [Compound No. 811, 4-[5-(Aminomethyl)pyrimidin-2-yl]-3-[2-methyl-5-(trifluoromethyl)pyrazol-3-yl]oxybenzonitrile] | < 10
5 | CCN(CC(F)F)c1cc(Oc2cc(C#N)ccc2-c2ncc(CCN)cn2)n(C)n1 [Compound No. 875, 4-[5-(2-Aminoethyl)pyrimidin-2-yl]-3-[5-[2,2-difluoroethyl(ethyl)amino]-2-methylpyrazol-3-yl]oxybenzonitrile] | < 10
6 | Cn1nc(-c2cnccn2)cc1Oc1cc(C#N)ccc1-c1ncc(CN)cn1 [Compound No. 931, 4-[5-(Aminomethyl)pyrimidin-2-yl]-3-(2-methyl-5-pyrazin-2-ylpyrazol-3-yl)oxybenzonitrile] | 10 to 1000
7 | Cc1nn(CC(C)C)cc1Oc1cc(F)ccc1-c1ncc(CCN)cn1 [Compound No. 966, 2-[2-[4-Fluoro-2-[3-methyl-1-(2-methylpropyl)pyrazol-4-yl]oxyphenyl]pyrimidin-5-yl]ethanamine] | < 10
8 | Cc1c(Oc2cc(F)ccc2-c2ncc(CCN)cn2)cnn1CC(C)C [Compound No. 967, 2-[2-[4-fluoro-2-[5-methyl-1-(2-methylpropyl)pyrazol-4-yl]oxyphenyl]pyrimidin-5-yl]ethanamine] | 10 to 1000
9 | Cn1nc(C(C)(C)C)cc1C(=O)c1cc(C#N)ccc1-c1ncc(CN)cn1 [Compound No. 1030, 4-[5-(Aminomethyl)pyrimidin-2-yl]-3-(5-tert-butyl-2-methylpyrazole-3-carbonyl)benzonitrile] | < 10
10 | Cc1nc(CN2CCCCC2)cn1Cc1cc(C#N)ccc1-c1ncc(CCN)cn1 [Compound No. 1179, 4-[5-(2-Aminoethyl)pyrimidin-2-yl]-3-[[2-methyl-4-(piperidin-1-ylmethyl)imidazol-1-yl]methyl]benzonitrile] | > 1000
11 | N#Cc1ccc(-c2ncc(CCN)cn2)c(Cn2cc(C3CC3)nn2)c1 [Compound No. 1187, 4-[5-(2-Aminoethyl)pyrimidin-2-yl]-3-[(4-cyclopropyltriazol-1-yl)methyl]benzonitrile] | < 10
12 | CC(C)Cn1cc(Cc2cc(C#N)ccc2-c2ncc(CCN)cn2)cn1 [Compound No. 1195, 4-[5-(2-Aminoethyl)pyrimidin-2-yl]-3-[[1-(2-methylpropyl)pyrazol-4-yl]methyl]benzonitrile] | < 10
13 | N#Cc1ccc(-c2ncc(CCN)cn2)c(Cn2cc(N3CCCC3)cn2)c1 [Compound No. 1198, 4-[5-(2-Aminoethyl)pyrimidin-2-yl]-3-[(4-pyrrolidin-1-ylpyrazol-1-yl)methyl]benzonitrile] | 10 to 1000
14 | Cn1nc(C(C)(C)C)cc1C(OCC#N)c1cc(C#N)ccc1-c1ncc(CCN)cn1 (stereo not drawn) [Compound No. 1237, 4-[5-(2-Aminoethyl)pyrimidin-2-yl]-3-[(5-tert-butyl-2-methylpyrazol-3-yl)-(cyanomethoxy)methyl]benzonitrile] | < 10
15 | Cn1nc(-c2ccccc2)cc1Oc1cc(C#N)ncc1-c1ccc(CCN)cn1 [Compound No. 1277, 5-[5-(2-Aminoethyl)pyridin-2-yl]-4-(2-methyl-5-phenylpyrazol-3-yl)oxypyridine-2-carbonitrile] | 10 to 1000

More lines, now with the values ahead:

Row | IC50 [nM] | Compound
16 | < 10 | Cc1nc(Oc2cc(C#N)ccc2-c2ncc(CCN)cn2)cc(-c2ccccc2C#N)n1 [Compound 295, 4-[5-(2-aminoethyl)pyrimidin-2-yl]-3-[6-(2-cyanophenyl)-2-methylpyrimidin-4-yl]oxybenzonitrile]
17 | > 1000 | Cn1nc(C2CC2)cc1Oc1cc(C#N)ccc1-c1ccc(C(N)C(=O)N2CCOCC2)cn1 (stereo not drawn) [Compound No. 487, 4-[5-(1-Amino-2-morpholin-4-yl-2-oxoethyl)pyridin-2-yl]-3-(5-cyclopropyl-2-methylpyrazol-3-yl)oxybenzonitrile]
18 | < 10 | Cn1nc(N2CCOCC2)cc1C(=O)c1cc(C#N)ccc1-c1ncc(CN)cn1 [Compound No. 1028, 4-[5-(Aminomethyl)pyrimidin-2-yl]-3-(2-methyl-5-morpholin-4-ylpyrazole-3-carbonyl)benzonitrile]
19 | < 10 | Cc1cc(C(=O)c2cc(C#N)ccc2-c2ncc(CCN)cn2)cc(N2CCOCC2)n1 [Compound No. 1042, 4-[5-(2-Aminoethyl)pyrimidin-2-yl]-3-(2-methyl-6-morpholin-4-ylpyridine-4-carbonyl)benzonitrile]
20 | 10 to 1000 | Cc1nc(N2CCOCC2)sc1C(=O)c1cc(C#N)ccc1-c1ncc(CN)cn1 [Compound No. 1064, 4-[5-(Aminomethyl)pyrimidin-2-yl]-3-(4-methyl-2-morpholin-4-yl-1,3-thiazole-5-carbonyl)benzonitrile]
21 | < 10 | N#Cc1ccc(-c2ccc(CCN)cn2)c(Cn2cnc(-c3ccccc3)c2)c1 [Compound No. 1131, 4-[5-(2-Aminoethyl)pyridin-2-yl]-3-[(4-phenylimidazol-1-yl)methyl]benzonitrile]
22 | 10 to 1000 | Cc1nc(C(C)c2cc(C#N)ccc2-c2ccc(CCN)cc2)cc(N2CCOCC2)n1 (stereo not drawn) [Compound No. 1226, 4-[4-(2-Aminoethyl)phenyl]-3-[1-(2-methyl-6-morpholin-4-ylpyrimidin-4-yl)ethyl]benzonitrile]
23 | 10 to 1000 | Cc1nc(N2CCOCC2)cc(C2(c3cc(C#N)ccc3-c3ccc(CCN)cc3)CC2)n1 [Compound No. 1227, 4-[4-(2-Aminoethyl)phenyl]-3-[1-(2-methyl-6-morpholin-4-ylpyrimidin-4-yl)cyclopropyl]benzonitrile]
24 | > 1000 | COC(c1cc(-c2nccs2)no1)c1cc(C#N)ccc1-c1ccc(CCN)cc1 (stereo not drawn) [Compound No. 1232, 4-[4-(2-Aminoethyl)phenyl]-3-[methoxy-[3-(1,3-thiazol-2-yl)-1,2-oxazol-5-yl]methyl]benzonitrile]
25 | < 10 | N#Cc1ccc(-c2ccc(CCN)cc2)c(Sc2cnnc(N3CCCCC3)c2)c1 [Compound No. 1240, 4-[4-(2-Aminoethyl)phenyl]-3-(6-piperidin-1-ylpyridazin-4-yl)sulfanylbenzonitrile]
26 | 10 to 1000 | N#Cc1ccc(-n2cc(CCN)cn2)c(Sc2cnnc(N3CCCCC3)c2)c1 [Compound No. 1246, 4-[4-(2-Aminoethyl)pyrazol-1-yl]-3-(6-piperidin-1-ylpyridazin-4-yl)sulfanylbenzonitrile]
27 | > 1000 | N#Cc1ccc(-c2ncc(CCN)cn2)c([S+]([O-])c2cnnc(N3CCCCC3)c2)c1 (stereo not drawn) [Compound No. 1276, 4-[5-(2-Aminoethyl)pyrimidin-2-yl]-3-(6-piperidin-1-ylpyridazin-4-yl)sulfinylbenzonitrile]
